Assay [1] relates to Carbapenem-resistant Enterobacteriaceae (CRE) clinical isolates. Put plainly: Susceptibility testing, CRE clinical isolates. It counts as cell-based. The following applies: 50 isolates.
In a further assay the test system is Pa isolates. Put plainly: Time kill assays against 12 isolates. As to conditions: tested alone, FOS-S isolates; >3-log10 reduction at 12 and/or 24 hours. It counts as cell-based, Pseudomonas aeruginosa. Here is the method: Forty-three Pa isolates (recovered from unique patients) were selected for testing. […] Interactions between FOS and other agents were determined by double disc testing on Mueller Hinton agar. Discs containing 300 μg FOS and 50 G6P were used, along with commercially available Kirby Bauer discs for other agents. Intravenous FOS MIC breakpoints are not established. […] Time kill assays against 12 isolates were performed for FOS, CAZ-AVI, CFT-TAZ and PIP-TAZ (alone, and each agent in combination with FOS) at the respective MIC (or breakpoint MIC for resistant isolates). Bactericidal activity during time-kills was defined as >3-log10 reduction at 12 and/or 24 hours, compared to starting inoculum. Synergy during time-kills was defined as >2-log10 reduction at 12 and/or 24 hours, compared to best single agent alone.

Assay [2] has as its system ESBL-producing K. pneumoniae isolate. Put plainly: Time-kill kinetic analysis. It counts as cell-based, Klebsiella pneumoniae. The following applies: CAZ ¼ and 1×MIC, by 4-8 h. Here is the method:
Broth microdilution for FOS (Mueller-Hinton broth supplemented with 25 μg/mL glucose-6-phosphate) and comparators was performed before performing TKK. TKK employed MIC multiples for FOS, and ¼ and 1×MIC of select comparators, and combinations of FOS and comparator. TKK were sampled for colony counts at T0, T2, T4, T8 and T24 hours (h). Two Klebsiella pneumoniae isolates (one KPC and one ESBL), two Pseudomonas aeruginosa isolates (non-MDR), and one Acinetobacter baumannii isolate (MDR) were tested.

Consider `C[C@@H](O)[C@H]1C(=O)N2C(C(=O)O)=C(SCCN=CN)C[C@H]12` [IMP, Imipenem], for which the Non-susceptiblity rate in assay [1] worked out at 86%.

As for ceftazidime-avibactam [C-A], in assay [1], the Non-susceptiblity rate worked out at 6%. In the assay with Pa isolates, the “% of isolates with bactericidal activity” value is 8%.

Turning to ceftolozane-tazobactam [C-T], the Non-susceptiblity rate in assay [1] was found to be 43%. Also, the “% of isolates with bactericidal activity” value in the assay with Pa isolates stood at 8%.

Turning to Gentamicin, the Non-susceptiblity rate in assay [1] stood at 54%.

As to Piperacillin-tazobactam [PTZ], the Non-susceptiblity rate in assay [1] turned out to be 96%. Also, in the assay with Pa isolates, the “% of isolates with bactericidal activity” value is listed as 8%.

For `CC(C)(O/N=C(\C(=O)N[C@@H]1C(=O)N2C(C(=O)[O-])=C(C[n+]3ccccc3)CS[C@H]12)c1csc(N)n1)C(=O)O` [CAZ, ceftazidime], in assay [1], the Non-susceptiblity rate is given as 92%. Moreover, the “decrease in CFU” value in assay [2] is reported as 0.9-2.1 log10 CFU.

Compound `C[C@@H](O)[C@H]1C(=O)N2C(C(=O)O)=C(S[C@@H]3CN[C@H](C(=O)N(C)C)C3)[C@H](C)[C@H]12` [MEM, Meropenem] came in with a Non-susceptiblity rate in assay [1] of 82%.

(Values after US11129840B2, “Methods for identifying novel dosing regimens” (Zavante Therapeutics, Inc., priority 2017, dated 2021).)
